# According to US20030161862A1, “Bacterial growth regulators or inhibitors with the use of 1,5-d-anhydrofructose” (priority 2000, published 2003):
# “Also recorded” adds a separate entry of the source.
# Columns and labels:
# Type in all cases: cell-based
# [1] = test system: Bacillus subtillis IFO 3009; test: growth suppression/inhibition on agar media, colonies observed visually; details: agar medium pH 7.0, 37° C. one night; BHA 0.5%, BHT 0.5%, 1,5-D-anhydrofructose 1%
# [2] = test system: Pseudomonas aeruginosa IFO 12689; test: as above; details: agar medium pH 7.0, 37° C. one night; BHA 0.5%, BHT 0.5%, 1,5-D-anhydrofructose 1%
# [3] = test system: Enterobactor cloacae JCM 1232; test: as above; details: agar medium pH 7.0, 37° C. one night; BHA 0.5%, BHT 0.5%, 1,5-D-anhydrofructose 1%
# gram-positive bacteria = test: minimum growth inhibitory concentration / growth inhibition in agar media; details: for growth inhibitory effect against gram-positive bacteria: 0.5%, used independently, agar medium pH 7.0
# Experimental: (§1) When a variety of bacteria are cultured in agar media in the presence of 1,5-D-anhydrofructose without any of an antioxidant or a chelating agent, a minimum growth inhibitory concentration of 1,5-D-anhydrofructose is 3.0 to 5.0% for gram-negative bacteria and 1.0 to 3.0% for gram-positive bacteria. Under the circumstances, influences on growth of a variety of bacteria in the presence of 1,5-D-anhydrofructose with or without sodium ascorbate which is a typical antioxidant to be used in food and beverages were examined.
# (§2) After the bacterial strains were suspended in physiological salt solutions, they were inoculated into agar media (each containing 0.25% of yeast extract, 0.5% of polypeptone, […]) with platinum loops and then cultured at 37° C. until colonies were formed. Thereafter, the bacteria were inoculated, with sterilized toothpicks, from the colonies into agar media of the above composition each of which contained 1.0% of sodium ascorbate and 1.0% of 1,5-D-anhydrofructose, and into agar media of the above composition each of which contained 1.0% of 1,5-D-anhydrofructose and no sodium ascorbate. For controls, culture media of the same composition each of which contained neither sodium ascorbate nor 1,5-D-anhydrofructose and culture media of the same composition each of which contained 1.0% of sodium ascorbate and no 1,5-D-anhydrofructose were used. Abilities of sodium ascorbate and 1,5-D-anhydrofructose to suppress/inhibit growth of the bacteria were evaluated by visually observing the colonies formed after the bacteria were cultured at 37° C. for one night.
# (§3) The substances were used at concentrations shown in the legend of Table 4.
# [4] = test system: Bacillus subtillis IFO 3009; test: growth suppression/inhibition on agar media, colonies observed visually; details: agar medium pH 6.5, 37° C. one night
# Text: (§4) Under the circumstances, influences on growth of a variety of bacteria in the presence of 1,5-D-anhydrofructose with or without sodium ascorbate which is a typical antioxidant to be used in food and beverages were examined.
# (§5) After the bacterial strains were suspended in physiological salt solutions, they were inoculated into agar media (each containing 0.25% of yeast extract, 0.5% of polypeptone, 1.0% of glucose and 1.5% of soft agar and having a pH of 6.5) with platinum loops and then cultured at 37° C. until colonies were formed. Thereafter, the bacteria were inoculated, with sterilized toothpicks, from the colonies into agar media of the above composition each of which contained 1.0% of sodium ascorbate and 1.0% of 1,5-D-anhydrofructose, and into agar media of the above composition each of which contained 1.0% of 1,5-D-anhydrofructose and no sodium ascorbate. For controls, culture media of the same composition each of which contained neither sodium ascorbate nor 1,5-D-anhydrofructose and culture media of the same composition each of which contained 1.0% of sodium ascorbate and no 1,5-D-anhydrofructose were used. Abilities of sodium ascorbate and 1,5-D-anhydrofructose to suppress/inhibit growth of the bacteria were evaluated by visually observing the colonies formed after the bacteria were cultured at 37° C. for one night.
# as §3
# (§6) Those cultured in the absence of the chelating agents, 1,5-D-anhydrofructose, sodium ascorbate and sodium erythorbate were taken as controls. As for an agar medium, a method for inoculating the bacteria, conditions for culturing the bacteria, and a method for evaluating a growth suppressing/inhibiting ability, they are the same as those used in the tests whose results are shown in Tables 2 and 3.
# [5] = test system: Streptococcus eqinus ATCC 9812; test: as above; details: agar medium pH 6.5, 37° C. one night
# Text: as §4, §5, §3, §6
# [6] = test system: Enterobactor cloacae JCM 1232; test: as above; details: agar medium pH 6.5, 37° C. one night
# Text: as §4, §5, §3, §6
# [7] = test system: Pseudomonas aeruginosa IFO 12689; test: as above; details: agar medium pH 6.5, 37° C. one night
# Text: as §4, §5, §3, §6
# Bacillus cereus IFO 3131 = test: as above
# Experimental: as §4, §2, §3, §6
# [8] = test system: Proteus vulgaris IFO 3851; test: as above
# Experimental: as §4, §2, §3, §6
# [9] = test system: Lactobacillus casei ATCC 393; test: as above
# Experimental: as §4, §2, §3, §6
# [10] = test system: Escherichia coli IFO 3301; test: as above
# Experimental: as §4, §2, §3, §6
# [11] = test system: Streptococcus eqinus ATCC 9812; test: as above; details: agar medium pH 7.0, 37° C. one night; BHA 0.5%, BHT 0.5%, 1,5-D-anhydrofructose 1%
# [12] = test system: a variety of bacteria (strains of Table 1); test: growth suppression on agar media, summary statements for all tested bacteria; details: for growth suppressing ability when solely used: solely used at the concentrations of the tests (sodium ascorbate 1.0%, sodium erythorbate 0.2%, chelating agents 0.2-0.5%); for effect of enhancing the growth suppressing effect of 1,5-D-anhydrofructose: co-presence with 1,5-D-anhydrofructose, no data shown
# Experimental: as §1, §5, §6
# [13] = 1,5-D-anhydrofructose 1%, sodium citrate 0.5%, sodium polyphosphate 0.2%, sodium malate 0.5%, sodium gluconate 0.5%, sodium tartrate 0.5%, sodium ascorbate 1%, sodium erythorbate 0.2%
# [14] = sodium ascorbate 1%, 1,5-D-anhydrofructose 1%
# [15] = sodium erythorbate 0.2%, 1,5-D-anhydrofructose 1%
# [16] = agar medium pH 6.5, 37° C. one night, 1,5-D-anhydrofructose 1%, sodium citrate 0.5%, sodium polyphosphate 0.2%, sodium malate 0.5%, sodium gluconate 0.5%, sodium tartrate 0.5%, sodium ascorbate 1%, sodium erythorbate 0.2%
# [17] = agar medium pH 6.5, 37° C. one night, sodium ascorbate 1%, 1,5-D-anhydrofructose 1%
# [18] = agar medium pH 6.5, 37° C. one night, sodium erythorbate 0.2%, 1,5-D-anhydrofructose 1%
# [19] = agar medium pH 7.0, 37° C. one night, BHA 0.5%, BHT 0.5%, 1,5-D-anhydrofructose 1%
compound,measurement,setting,value
"O=C1CO[C@H](CO)[C@@H](O)[C@@H]1O [1,5-D-anhydrofructose]",condition of the colonies,[1],+
same,condition of the colonies,[2],+
same,condition of the colonies,[3],+
same,minimum growth inhibitory concentration,"gram-positive bacteria; agar media, without any antioxidant or chelating agent",1.0 to 3.0%
same,condition of the colonies,[4]; [13],+
same,condition of the colonies,[4]; [14],+
same,condition of the colonies,[4]; [15],+
same,condition of the colonies,[5]; [13],±
same,condition of the colonies,[5]; [14],±
same,condition of the colonies,[5]; [15],±
same,condition of the colonies,[6]; [13],+
same,condition of the colonies,[6]; [14],+
same,condition of the colonies,[6]; [15],+
same,condition of the colonies,[7]; [13],+
same,condition of the colonies,[7]; [14],+
same,condition of the colonies,[7]; [15],+
same,condition of the colonies,Bacillus cereus IFO 3131; [16],±
same,condition of the colonies,Bacillus cereus IFO 3131; [17],±
same,condition of the colonies,Bacillus cereus IFO 3131; [18],±
same,condition of the colonies,Bacillus cereus IFO 3131; [19],±
same,condition of the colonies,[8]; [16],±
same,condition of the colonies,[8]; [17],±
same,condition of the colonies,[8]; [18],±
same,condition of the colonies,[8]; [19],±
same,condition of the colonies,[9]; [16],±
same,condition of the colonies,[9]; [17],±
same,condition of the colonies,[9]; [18],±
same,condition of the colonies,[9]; [19],±
same,condition of the colonies,[10]; [16],+
same,condition of the colonies,[10]; [17],+
same,condition of the colonies,[10]; [18],+
same,condition of the colonies,[10]; [19],+
same,condition of the colonies,[11],±
"COc1ccc(O)c(C(C)(C)C)c1 [BHA, butylhydroxyanisol]",condition of the colonies,[1],−
same,condition of the colonies,[2],+
same,condition of the colonies,[3],±
same,growth inhibitory effect against gram-positive bacteria,gram-positive bacteria,exhibited a growth inhibitory effect against all of the examined gram-positive bacteria
same,condition of the colonies,Bacillus cereus IFO 3131; [19],−
same,condition of the colonies,[8]; [19],−
same,condition of the colonies,[9]; [19],−
same,condition of the colonies,[10]; [19],−
same,condition of the colonies,[11],−
"Cc1cc(C(C)(C)C)c(O)c(C(C)(C)C)c1 [BHT, dibutylhydroxytoluene]",condition of the colonies,[1],−
same,condition of the colonies,[2],+
same,condition of the colonies,[3],+
same,growth inhibitory effect against gram-positive bacteria,gram-positive bacteria,exhibited a growth inhibitory effect against all of the examined gram-positive bacteria
same,condition of the colonies,Bacillus cereus IFO 3131; [19],−
same,condition of the colonies,[8]; [19],±
same,condition of the colonies,[9]; [19],−
same,condition of the colonies,[10]; [19],+
same,condition of the colonies,[11],−
O=C1O[C@H]([C@@H](O)CO)C([O-])=C1O.[Na+] [sodium ascorbate],condition of the colonies,[4]; [13],+
same,condition of the colonies,[4]; [14],+
same,condition of the colonies,[5]; [13],+
same,condition of the colonies,[5]; [14],+
same,condition of the colonies,[6]; [13],+
same,condition of the colonies,[6]; [14],+
same,condition of the colonies,[7]; [13],+
same,condition of the colonies,[7]; [14],+
same,growth suppressing ability when solely used,[12],does not have a growth suppressing ability against any of the bacteria; also recorded: do not inhibit growth of the bacteria
same,condition of the colonies,Bacillus cereus IFO 3131; [16],+
same,condition of the colonies,Bacillus cereus IFO 3131; [17],+
same,condition of the colonies,[8]; [16],+
same,condition of the colonies,[8]; [17],+
same,condition of the colonies,[9]; [16],+
same,condition of the colonies,[9]; [17],+
same,condition of the colonies,[10]; [16],+
same,condition of the colonies,[10]; [17],+
O=C([O-])CC(O)(CC(=O)[O-])C(=O)[O-].[Na+].[Na+].[Na+] [sodium citrate],condition of the colonies,[4]; [13],+
same,condition of the colonies,[5]; [13],+
same,condition of the colonies,[6]; [13],+
same,condition of the colonies,[7]; [13],+
same,condition of the colonies,Bacillus cereus IFO 3131; [16],+
same,condition of the colonies,[8]; [16],+
same,condition of the colonies,[9]; [16],+
same,condition of the colonies,[10]; [16],+
O=C1O[C@H]([C@H](O)CO)C([O-])=C1O.[Na+] [sodium erythorbate],condition of the colonies,[4]; [13],+
same,condition of the colonies,[4]; [15],+
same,condition of the colonies,[5]; [13],+
same,condition of the colonies,[5]; [15],+
same,condition of the colonies,[6]; [13],+
same,condition of the colonies,[6]; [15],+
same,condition of the colonies,[7]; [13],+
same,condition of the colonies,[7]; [15],+
same,growth suppressing ability when solely used,[12],do not inhibit growth of the bacteria
same,condition of the colonies,Bacillus cereus IFO 3131; [16],+
same,condition of the colonies,Bacillus cereus IFO 3131; [18],+
same,condition of the colonies,[8]; [16],+
same,condition of the colonies,[8]; [18],+
same,condition of the colonies,[9]; [16],+
same,condition of the colonies,[9]; [18],+
same,condition of the colonies,[10]; [16],+
same,condition of the colonies,[10]; [18],+
O=C([O-])[C@H](O)[C@@H](O)[C@H](O)[C@H](O)CO.[Na+] [sodium gluconate],condition of the colonies,[4]; [13],+
same,condition of the colonies,[5]; [13],+
same,condition of the colonies,[6]; [13],+
same,condition of the colonies,[7]; [13],+
same,condition of the colonies,Bacillus cereus IFO 3131; [16],+
same,condition of the colonies,[8]; [16],+
same,condition of the colonies,[9]; [16],+
same,condition of the colonies,[10]; [16],+
O=C([O-])CC(O)C(=O)[O-].[Na+].[Na+] (stereo not shown) [sodium malate],condition of the colonies,[4]; [13],+
same,condition of the colonies,[5]; [13],+
same,condition of the colonies,[6]; [13],+
same,condition of the colonies,[7]; [13],+
same,condition of the colonies,Bacillus cereus IFO 3131; [16],+
same,condition of the colonies,[8]; [16],+
same,condition of the colonies,[9]; [16],+
same,condition of the colonies,[10]; [16],+
O=C([O-])C(O)C(O)C(=O)[O-].[Na+].[Na+] (stereo not shown) [sodium tartrate],condition of the colonies,[4]; [13],+
same,condition of the colonies,[5]; [13],+
same,condition of the colonies,[6]; [13],+
same,condition of the colonies,[7]; [13],+
same,condition of the colonies,Bacillus cereus IFO 3131; [16],+
same,condition of the colonies,[8]; [16],+
same,condition of the colonies,[9]; [16],+
same,condition of the colonies,[10]; [16],+
catechin,"effect of enhancing the growth suppressing effect of 1,5-D-anhydrofructose",[12],exhibit the above effect
sodium polyphosphate,condition of the colonies,[4]; [13],+
same,condition of the colonies,[5]; [13],+
same,condition of the colonies,[6]; [13],+
same,condition of the colonies,[7]; [13],+
same,condition of the colonies,Bacillus cereus IFO 3131; [16],+
same,condition of the colonies,[8]; [16],+
same,condition of the colonies,[9]; [16],+
same,condition of the colonies,[10]; [16],+
tocopherol,"effect of enhancing the growth suppressing effect of 1,5-D-anhydrofructose",[12],exhibit the above effect
